Experimental data reported in patent US20250228857A1, “BIOSENSOR AND USES THEREOF” (The Johns Hopkins University, priority 2022, published 2025).
pIC50: −log10 of the molar value. Read-outs that look alike come from different tables or passages of the source. Each block holds one molecule with its values, some of them ahead of it.

Experiments:
CaMKII [1] = details: cited from earlier work
CaMKII [2] = target: T1, CaMKII (Rattus norvegicus, UniProt P15791); assay: Pacing-induced CaMKII activity in CaMKAR-expressing neonatal rat ventricular myocytes (NRVMs); format: cell-based
T1 construct: endogenous in cells; host or cells: neonatal rat ventricular myocytes (Sprague-Dawley)

[3] = in vivo; cited from earlier work
[4] = in vivo; cited from earlier work; remark: listed apart in the source
[5] = cited from earlier work
293T cells = assay: Cell viability in 293T cells (CellTiter-Glo 2.0); details: 12-hour exposure
CaMKII^T287D = target: T2, CaMKII^T287D (Homo sapiens, UniProt Q13557, T287D); assay: CaMKII inhibition in 293T cells expressing CaMKAR and CaMKII^T287D (high content imaging); format: cell-based; details: HEK293T cells, IC50 curves
T2 construct: expressed in transfected cells; host or cells: HEK293T

CaMKII [6] = details: HEK293T cells and in vitro by independent commercial laboratory
NRVMs = assay: NRVM cell viability after 48 hour compound incubation; format: cell-based, rat; details: 48-hour exposure
Text: FIGS. 3A-3H show which drugs in clinical use inhibit CaMKII in cardiac cells. (FIG. 3A) Fluorescence imaging timelapse of CaMKAR expressing neonatal rat ventricular cardiomyocytes (NRVMs) and (FIG. 3B) summary data during 3 Hz field pacing (n=1,065-1,160 cells). R/R0=R normalized to mean R prior to stimulation. Scale bar=50 μm. […] CaMKII inhibition % defined by min-max normalization between untreated and maximally stimulated CaMKAR signal. […] (FIG. 3E) Summary data from D at 60 seconds post stimulation. […] (FIG. 3H) Cell viability after 48 hour compound incubation. All measurements are taken from >3 biological replicates. ns=p>0.05, ****p<0.0001; significance determined via one-way ANOVA and Dunnett's multiple comparisons test (FIGS. 3C,3 E); two-way ANOVA and Tukey's multiple comparisons test (FIG. 3F).
Rat hippocampal neurons were cultured as previously described (38).

type 1 diabetic mice = assay: Atrial fibrillation induction by atrial burst pacing in type 1 diabetic mice; format: in vivo, mouse; details: 75 mg/kg i.p. single dose 10 minutes prior
Text: (§1) (FIG. 7A) Representative type 1 diabetic mouse tracings immediately after atrial burst pacing. […] (FIG. 7B) Atrial fibrillation (AF) inducibility percentage from mice in FIG. 7A. Number of mice analyzed per group shown in each column: 9/16 vehicle treated mice had AF vs. 2/15 Rux-treated mice. (FIG. 7C) Sequential atrial fibrillation (AF) inducibility in OGT-transgenic mice. […] Number of mice analyzed per group shown in each column (Vehicle=5/5 had AF, Rux=1/5 had AF). […] Statistical comparisons were performed using 2-tailed Fischer's exact test (FIGS. 7B, 7C); two-way ANOVA with Sidak's multiple comparison's test (FIG. 7D); paired Student's T-test (FIG. 7E); *p<0.05, ****p<0.0001.
Diabetic Mouse Model. Type-1 diabetes (T1D) was induced as previously described (57) in adult male C57BL/6J mice (The Jackson Laboratory, ME, USA) by a single intraperitoneal injection of streptozotocin (STZ)(185 mg/kg, Sigma-Aldrich) dissolved in a citrate buffer (citric acid and sodium citrate, pH 4.0) after a six hour fast. Mice were maintained on normal chow diet (NCD) (7913 irradiated NIH-31 modified 6% mouse/rat diet—15 kg, Envigo, Indianapolis, TN). Mice were considered diabetic if blood glucose level was ≥300 mg/dl via tail vein blood checked with a glucometer—OneTouch Ultra 2 (LifeScan, Zug, Switzerland). […]

OGT-transgenic mice = assay: Sequential atrial fibrillation inducibility in OGT-transgenic mice; format: in vivo, mouse; details: 75 mg/kg prior to second pacing
Text: as §1
75 mg/kg dosing was chosen due to previous studies determining this dose to be equivalent to the 20-25 mg dose in humans based on plasma concentration (47-49). In vivo electrophysiology (EP) studies were performed as previously reported (57) in mice anesthetized with isoflurane (2% for induction and 1.5% for maintenance of anesthesia; Isotec 100 Series Isoflurane Vaporizer; Harvard Apparatus). AF was defined as the occurrence of rapid and fragmented atrial electrograms with irregular AV-nodal conduction and ventricular rhythm for at least 1 second. If 1 or more atrial bursts (out of 5) were an AF episode, the mouse was considered to have inducible AF. […]

CREM-IbAC-X mice = assay: Spontaneous atrial fibrillation in CREM-IbAC-X mice; format: in vivo, mouse; details: 75 mg/kg i.p., 10 minutes after treatment
Text: as §1
Spontaneous AF. 8-months-old CREM-IbAC-X mice were monitored via surface ECG for 15 minutes to establish the baseline for time spent in atrial fibrillation (AF). AF was defined as loss of p-waves and irregularly irregular R-R intervals for >10 seconds. Each mouse was monitored at least twice with more than 24 hours interval between two recordings. After establishing the baseline, the mice were injected with placebo (10% DMSO, 2.5% Tween-20 in saline; i.p. injections) and the 15-minute ECGs were recorded between 10-25 minutes post injection.

C57BL/6J mice [7] = assay: Novel object recognition test (NORT); format: in vivo, mouse; details: 75 or 41 mg/kg; single dose 1 hour prior or twice daily for 7 days
C57BL/6J mice [8] = assay: Y maze spatial recognition memory test; format: in vivo, mouse
C57BL/6J mice [9] = assay: Barnes maze; format: in vivo, mouse; details: 150 mg/kg/day
Protocol: (FIG. 20B) Latency to escape the Barnes maze during the probe trial (day 6). There was no significant deficit in ruxolitinib (Rux) treated mice over vehicle (Veh). Datapoints represent individual mice. (FIGS. 20C-20E) Latency to escape maze, primary errors, and total errors of mice subjected to Barnes maze during the 4 training trials. Statistical testing shown below each graph with proportion and significance of variance by each parameter. Data shown as mean±SEM. Significance was determined via Student's T-test (FIG. 20B), or two-way ANOVA (FIGS. 20C-20E).
For the Barnes maze: A brightly lit (1100 lux) Barnes maze with 20 evenly spaced holes and an escape box placed under one of the holes was used (Maze Engineers). During training, each mouse was placed in the center of the maze and allowed to explore the maze for 3 minutes per trial. During the trial, the number of head dips and the latency to find and then enter the escape box were recorded. Mice were given two trials per day for four days. 24 hours following training, mice were given a probe trial, with the number of head dips and latency to find and then enter the escape box recorded.

[10] = rats; cited from earlier work
[11] = system: WT and RyR2^R176Q/WT mice; assay: ECG heart rate and electrophysiologic parameters in WT and RyR2^R176Q/WT mice
[12] = target: T3, constitutively active CaMKIIδT287D (Homo sapiens, UniProt Q13557, T287D); assay: CaMKAR-based high throughput primary screen in K562^CaMKII-CaMKAR cells; format: cell-based; details: 5 μM per compound, 12 hours
T3 construct: P2A-mCherry (C); expressed in transfected cells; host or cells: K562 (lentiviral, doxycycline-induced)

CaMKII [13] = target: CaMKII (Homo sapiens, UniProt Q13557); format: biochemical; details: 5 μM drug, 100 μM ATP
[14] = target: CaMKAR (CaMKII Activity Reporter) (human); assay: cell-based or functional assay
[15] = system: Purified recombinant CaMKAR
[16] = long-term ruxolitinib, median exposures 11.1 and 34.4 months

Molecule: O=c1c(O)c(-c2ccc(O)c(O)c2)oc2ccccc12 [DiOHF, 3′,4′-dihydroxyflavonol]
pIC50 (CaMKII [1]; read-out: published IC50): 6.60

inhibition of pacing-induced CaMKII activity (CaMKII [2]; 0.5 μM and 2 μM pre-treatment): failed to inhibit
Molecule: O=C(Nc1nc2cccc(-c3ccc(CN4CCS(=O)(=O)CC4)cc3)n2n1)C1CC1 [Filgotinib, filgotinib]

Molecule: CN([C@@H](Cc1ccc(OS(=O)(=O)c2cccc3cnccc23)cc1)C(=O)N1CCN(c2ccccc2)CC1)S(=O)(=O)c1cccc2cnccc12 [KN-62, 1-[N,O-bis(5-isoquinolinesulfonyl)-N-methyl-L-tyrosyl]-4-phenylpiperazine]
inhibition of autonomously hyperactive CaMKII (CaMKII [1]): fail to inhibit

Molecule: COc1ccc(S(=O)(=O)N(CCO)c2ccccc2CN(C)CC=Cc2ccc(Cl)cc2)cc1 [KN-93]
inhibition of autonomously hyperactive CaMKII (CaMKII [1]): fail to inhibit

Molecule: CCN1CCN(Cc2ccc(Nc3ncc(F)c(-c4cc(F)c5nc(C)n(C(C)C)c5c4)n3)nc2)CC1 [abemaciclib]
CNS penetrance [3]: 11-16.6%
maximum human plasma concentration [4]: 243 nM
Maximum dose used in humans ([5]; human, in vivo): 200 mg BID

Molecule: CCS(=O)(=O)N1CC(CC#N)(n2cc(-c3ncnc4[nH]ccc34)cn2)C1 [baricitinib]
CNS penetrance [3]: 20% (103)
maximum human plasma concentration [4]: 58 nM
Maximum dose used in humans ([5]; FDA-approved): 4 mg QD (97)
Maximum dose used in humans ([5]; Healthy volunteers): 40 mg (98)
toxicity compared with AS100397 (293T cells): less toxic

potency compared with AS100397 (CaMKII^T287D): more potent than AS100397
inhibition of pacing-induced CaMKII activity at maximal human plasma concentration (CaMKII [2]; 3 Hz pacing, ruxolitinib 1.51 μM, crenolanib 478 nM, abemaciclib 243 nM, baricitinib 58 nM, silmitasertib 3.42 μM): sustained inhibition
Molecule: CC1(COc2ccc3c(c2)ncn3-c2ccc3cccc(N4CCC(N)CC4)c3n2)COC1 [crenolanib]
confirmed CaMKII inhibitor after re-test (CaMKII [6]): potent CaMKII inhibitors
maximum human plasma concentration [4]: 478 nM
Maximum dose used in humans ([5]; human, in vivo): 100 mg TID
toxicity compared with AS100397 (293T cells): all drugs except crenolanib were less toxic

Molecule: N#CC[C@H](C1CCCC1)n1cc(-c2ncnc3[nH]ccc23)cn1 [ruxolitinib]
well tolerated concentration (NRVMs): up to 100 μM
mice with AF / mice analyzed (type 1 diabetic mice): 2/15
mice with AF / mice analyzed (OGT-transgenic mice): 1/5
percent time in AF (CREM-IbAC-X mice): 33.63%
novel object recognition, percent time spent with the novel object (C57BL/6J mice [7]): Neither single dose (1 hour prior) nor multiple doses (twice daily for 7 days) of ruxolitinib (75 or 41 mg/kg) caused significant differences in novel object recognition
decreased preference for the novel arm (C57BL/6J mice [8]; higher dose single dosing and both multiple dosing cohorts): not seen
preference for the novel arm (C57BL/6J mice [8]; single dosing, lower dose (41 mg/kg)): decreased preference for the novel arm
latency, primary errors, and total errors during training trials (C57BL/6J mice [9]): no significant effect
maze solving latency at study endpoint (probe trial) (C57BL/6J mice [9]; day 6): no difference
plasma concentration over brain concentration [10]: 29 fold
CNS penetrance [3]: 3.5% (64)
maximum human plasma concentration [4]: 1510 nM
Maximum dose used in humans ([5]; FDA-approved): 25 mg BID (96)
Maximum dose used in humans ([5]; Healthy volunteers): 200 mg QD (76)
well-tolerated dose ([5]; healthy volunteers, short-term dosing): up to 200 mg
patients discontinuing treatment due to anemia [5, 16]: < 2.6%
patients discontinuing treatment due to thrombocytopenia [5, 16]: < 3.6%
cognitive deficits in patients ([5]; prescribed for over a decade): without reported overt cognitive deficits
toxicity compared with AS100397 (293T cells): less toxic
PR ([11]; RyR^R176Q/WT mice, Baseline): 39.5 ± 1 ms
QTc ([11]; RyR^R176Q/WT mice, Baseline): 36.5 ± 5 ms
PR ([11]; RyR^R176Q/WT mice, EPI): 42.2 ± 4 ms
QTc ([11]; RyR^R176Q/WT mice, EPI): 49.5 ± 4 ms
PR ([11]; RyR^R176Q/WT mice, ISO): 43.1 ± 3 ms
QTc ([11]; RyR^R176Q/WT mice, ISO): 51.6 ± 5 ms
PR ([11]; WT mice, Baseline): 43.4 ± 4 ms
QTc ([11]; WT mice, Baseline): 48.6 ± 6 ms
PR ([11]; WT mice, EPI): 45.9 ± 2.7 ms
QTc ([11]; WT mice, EPI): 55.7 ± 8 ms
PR ([11]; WT mice, ISO): 43.8 ± 4 ms
QTc ([11]; WT mice, ISO): 49.2 ± 4 ms

Molecule: O=C(O)c1ccc2c(c1)nc(Nc1cccc(Cl)c1)c1ccncc12 [silmitasertib]
maximum human plasma concentration [4]: 3420 nM
Maximum dose used in humans ([5]; human, in vivo): 1000 mg BID

Molecule: CN[C@@H]1C[C@H]2O[C@@](C)([C@@H]1OC)n1c3ccccc3c3c4c(c5c6ccccc6n2c5c31)C(=O)NC4 [staurosporine]
CaMKAR signal / hit in primary screen [12]: returned
inhibition in secondary screen (CaMKAR in vitro assay) (CaMKII [13]): returned

Maximal amplitude change of CaMKAR signal (R/R0), HEK293T cells, ionomycin [14]: 227%
Molecule: Constitutively active CaMKIIδC (T287D mutation) (from UniProt Q13557 1-499)

Molecule: Purified CaMKIIδc
dynamic range of CaMKAR ratio in vitro, plate reader, Ca2+/CaM and ATP [15]: CaMKAR displays a larger dynamic range in vitro (264±2.1%)
spectral changes of purified CaMKAR in vitro [15]: Recombinant CaMKAR is fully functional and exhibits appropriate spectral changes upon incubation with purified CaMKII
